Laboratory results taken from ChEMBL document CHEMBL4665541, “Search for new therapeutic options for the uncommon pathogen Mycobacterium chimaera: an open drug discovery approach” (Lancet Microbe, 2021).

Key:
Type in all cases: functional, organism-based
Parameters in all cases: conc 20 uM
[1] = tested on: Mycobacterium intracellulare subsp. chimaera; experiment: (§1) Inhibition of mycobacterial growth using the resazurin microtitre cell viability assay (REMA), compounds at final concentration of 20 µM (2% v/v DMSO). Hits were classed as compounds that inhibited bacterial growth by 70% or more compared to drug-free controls.; conditions: NCTC13781
[2] = tested on: Mycobacterium tuberculosis; experiment: as §1; conditions: H37Rv
[3] = tested on: Mycobacteroides abscessus; experiment: as §1; conditions: ATCC19977

Row | Substance | Survival [1] | Survival [2] | Survival [3]
1 | MMV676501 | 91.8% | 14% | 104%
2 | MMV676509 | 89.8% | 85.9% | 113%
3 | MMV676512 | 95.9% | 6.01% | 100%
4 | MMV676520 | 85.8% | 43.4% | 100%
5 | MMV676524 | 97% | 23.4% | 114%
6 | MMV676526 | 74.8% | 97.3% | 103%
7 | MMV676528 | 102% | 88.7% | 115%
8 | MMV676536 | 101% | 90.9% | 119%
9 | MMV676539 | 95.1% | 29.7% | 99.7%
10 | MMV676554 | 41.2% | 29.4% | 109%
11 | MMV676555 | 39% | 71.2% | 123%
12 | MMV676558 | 100% | 90.9% | 110%
13 | MMV676571 | 100% | 59.4% | 115%
14 | MMV676584 | 90.2% | 66.8% | 115%
15 | MMV676588 | 76.5% | 19.7% | 102%
16 | MMV676589 | 89% | 70.1% | 116%
17 | MMV676597 | 99.5% | 98% | 113%
18 | MMV676599 | 102% | 88.2% | 115%
19 | MMV676600 | 90.1% | 91.1% | 125%
20 | MMV676602 | 111% | 105% | 95.5%
21 | MMV676603 | 101% | 38.4% | 112%
22 | MMV676604 | 104% | 95% | 119%

Row | Substance | Survival [1] | Survival [2] | Survival [3]
23 | MMV676605 | 110% | 99.5% | 122%
24 | MMV676877 | 106% | 90.2% | 107%
25 | MMV676881 | 101% | 98.9% | 99.4%
26 | MMV687138 | 104% | 56.3% | 102%
27 | MMV687145 | 130% | 42.6% | 108%
28 | MMV687146 | 4.5% | 77.5% | 17.2%
29 | MMV687170 | 89.9% | 52.7% | 114%
30 | MMV687172 | 101% | 129% | 98.3%
31 | MMV687180 | 105% | 74.6% | 107%
32 | MMV687188 | 73.5% | 43.4% | 110%
33 | MMV687189 | 98.5% | 58.1% | 104%
34 | MMV687239 | 97.5% | 68.1% | 108%
35 | MMV687243 | 106% | 87.1% | 113%
36 | MMV687246 | 110% | 90.9% | 119%
37 | MMV687248 | 110% | 31.8% | 110%
38 | MMV687251 | 88.3% | 5.28% | 116%
39 | MMV687254 | 107% | 106% | 113%
40 | MMV687273 | 110% | 31.5% | 111%
41 | MMV687696 | 75.7% | 44.7% | 109%
42 | MMV687699 | 93.8% | 53.6% | 114%
43 | MMV687700 | 88% | 84.1% | 107%
44 | MMV687703 | 3.71% | 4.55% | 105%
